Measurements from patent US20260109707A1, “HETEROBIFUNCTIONAL COMPOUNDS AND METHODS OF TREATING DISEASE” (Halda Therapeutics OpCo. Inc., priority 2022, published 2026).
Where two headings read alike, the source gives them in different places.

Columns and labels:
[1] = test system: T-Rex 293 cell line SC3 cells having increased expression of androgen receptor protein due to exposure to doxycycline; test: Cellular growth inhibition assay, T-Rex 293 SC3 cells with doxycycline (CellTiter-Glo, 72 hours); assay type: cell-based; conditions: T-Rex 293 SC3 cells with increased androgen receptor expression due to doxycycline (10 ng/mL)
Summary of the method: (§1)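 Growth inhibition is measured in an inducible AR-expressing T-Rex 293 clone, SC3, cultured with or without 10 ng/mL doxycycline in hormone-depleted medium. Test compounds are applied for 72 hours. GI50 values derive from CellTiter-Glo 2.0 signal fitted by four-parameter regression.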

[2] = test system: T-Rex 293 cell line SC3 cells lacking increased expression of androgen receptor protein; test: Cellular growth inhibition assay, T-Rex 293 SC3 cells without doxycycline (CellTiter-Glo, 72 hours); assay type: cell-based; conditions: T-Rex 293 cell line SC3 cells not exposed to doxycycline (lacking increased androgen receptor expression)
Summary of the method: as §1

[3] = test system: VCaP cells; test: Cellular growth inhibition assay for VCaP cells (CellTiter-Glo, 72 hours); assay type: cell-based, human
Summary of the method: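 Luminescent viability signal after 72 h of compound exposure gave GI50 values by four-parameter nonlinear regression. Compounds were added in 0.5% DMSO to cells plated 24 h earlier at 5000/well in DMEM containing 10% FBS.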

Row | SMILES | GI50 ([1]; 72 h) [nM] | GI50 [2] [nM] | GI50 [3] [nM] | GI50 ([2]; 72 h) [nM] | GI50 ([3]; Homo sapiens, VCaP, 72 h) [nM] | GI50 [1] [nM]
1 | Cc1sc2c(c1C)C(c1ccc(COC3CCC4(CCCN(c5ccc(C(=O)N[C@H]6CC[C@H](Oc7ccc(C#N)c(Cl)c7)CC6)nn5)C4)C3)cc1)=NC1(CC1)c1nnc(C)n1-2 (stereo partly drawn) [I-493] | < 500 | 500 to 1500 | > 3000 |  |  | 
2 | CCNC(=O)C[C@@H]1N=C(c2ccc(N3CC(N(C4CC4)C4CN(c5ccc(C(=O)N[C@H]6CC[C@H](Oc7ccc(C#N)c(Cl)c7)CC6)nn5)C4)C3)cc2)c2c(sc(C)c2C)-n2c(C)nnc21 [I-56] | < 500 |  |  | < 500 | < 500 | 
3 | Cc1sc2c(c1C)C(c1ccc(CC3CCC4(CCCN(c5ccc(C(=O)N[C@H]6CC[C@H](Oc7ccc(C#N)c(Cl)c7)CC6)nn5)C4)C3)cn1)=N[C@@H](C)c1nnc(C)n1-2 (stereo partly drawn) [I-623] |  | 500 to 1500 | 500 to 1500 |  |  | < 500
4 | Cc1sc2c(c1C)C(c1ccc(OCC3CCC4(CCCN(c5ccc(C(=O)N[C@H]6CC[C@H](Oc7ccc(C#N)c(Cl)c7)CC6)nn5)C4)C3)cc1)=N[C@@H](C)c1nnc(C)n1-2 (stereo partly drawn) [I-626] | < 500 |  |  | < 500 | < 500 | 
5 | Cc1sc2c(c1C)C(c1ccc(C#CC3CC4(CCCN(c5ccc(C(=O)N[C@H]6CC[C@H](Oc7ccc(C#N)c(Cl)c7)CC6)nn5)C4)C3)cn1)=NC(C)c1nnc(C)n1-2 (stereo partly drawn) [I-455] |  | > 3000 | < 500 |  |  | < 500
6 | Cc1sc2c(c1C)C(c1ccc(COC3CCC4(C3)CN(c3ccc(C(=O)N[C@H]5CC[C@H](Oc6ccc(C#N)c(Cl)c6)CC5)nn3)CCO4)cc1)=N[C@@H](C)c1nnc(C)n1-2 (stereo partly drawn) [I-558] |  | < 500 | < 500 |  |  | < 500
7 | Cc1sc2c(c1C)C(c1cccc(OC3CCC4(CCN(c5ccc(C(=O)N[C@H]6CC[C@H](Oc7ccc(C#N)c(Cl)c7)CC6)nn5)C4)C3)c1)=N[C@@H](C)c1nnc(C)n1-2 (stereo partly drawn) [I-748] | < 500 |  |  | < 500 | < 500 | 
8 | Cc1sc2c(c1C)C(c1ccc(N3CCC4CN(c5ccc(C(=O)N[C@H]6CC[C@H](Oc7ccc(C#N)c(Cl)c7)CC6)nn5)CCC4C3)cc1)=N[C@@H](C)c1nnc(C)n1-2 (stereo partly drawn) [I-621] |  | > 3000 | 500 to 1500 |  |  | < 500
9 | Cc1sc2c(c1C)C(c1ccc(C3CCC4(CCCN(c5ccc(C(=O)N[C@H]6CC[C@H](Oc7ccc(C#N)c(Cl)c7)CC6)nn5)C4)CC3)cc1)=NC(C(F)(F)F)c1nnc(C)n1-2 (stereo partly drawn) [I-697] |  | > 3000 | > 3000 |  |  | > 3000
10 | Cc1sc2c(c1C)C(c1ccc(CC3CCC4(C3)CN(c3ccc(C(=O)N[C@H]5CC[C@H](Oc6ccc(C#N)c(Cl)c6)CC5)nn3)CCO4)cc1)=N[C@@H](C)c1nnc(C)n1-2 (stereo partly drawn) [I-579] |  | < 500 | 1500 to 3000 |  |  | < 500
11 | Cc1sc2c(c1C)C(c1ccc(N3C[C@H]4CN(c5ccc(C(=O)N[C@H]6CC[C@H](Oc7ccc(C#N)c(Cl)c7)CC6)nn5)C[C@H]4C3)c(F)c1)=N[C@@H](C)c1nnc(C)n1-2 [I-703] | < 500 |  |  | < 500 | 500 to 1500 | 
12 | CC[C@@H]1N=C(c2ccc(N3CCC4(CC3)CCN(c3ccc(C(=O)N[C@H]5CC[C@H](Oc6ccc(C#N)c(Cl)c6)CC5)nn3)C4)cc2)c2c(sc(C)c2C)-n2c(C)nnc21 [I-530] | < 500 |  |  | < 500 | > 3000 | 
13 | Cc1sc2c(c1C)C(c1ccc(CC3CC(CC4CCN(c5ccc(C(=O)N[C@H]6CC[C@H](Oc7ccc(C#N)c(Cl)c7)CC6)nn5)CC4)C3)cc1)=N[C@@H](C)c1nnc(C)n1-2 (stereo partly drawn) [I-629] |  | > 3000 | < 500 |  |  | < 500
14 | Cc1sc2c(c1C)C(c1ccc(N3CCC4(CCN(c5ccc(C(=O)N[C@H]6CC[C@H](Oc7ccc(C#N)c(Cl)c7)CC6)nn5)C4)C3)cc1F)=N[C@@H](C)c1nnc(C)n1-2 (stereo partly drawn) [I-746] |  | 500 to 1500 |  |  | < 500 | < 500
15 | COCC[C@@H]1N=C(c2ccc(OC3CC4(CCCN(c5ccc(C(=O)N[C@H]6CC[C@H](Oc7ccc(C#N)c(Cl)c7)CC6)nn5)C4)C3)cc2)c2c(sc(C)c2C)-n2c(C)nnc21 (stereo partly drawn) [I-662] | < 500 |  |  | 500 to 1500 | < 500 | 
16 | Cc1sc2c(c1C)C(c1ccc(C3CCC4(CCN(c5ccc(C(=O)N[C@H]6CC[C@H](Oc7ccc(C#N)c(Cl)c7)CC6)nn5)CC4)C3)cc1)=NC(C(F)(F)F)c1nnc(C)n1-2 (stereo partly drawn) [I-759] |  |  |  | > 3000 | < 500 | > 3000
17 | Cc1sc2c(c1C)C(c1ccc(C#CC3CCC(Cc4ccc(C(=O)N[C@H]5CC[C@H](Oc6ccc(C#N)c(Cl)c6)CC5)nn4)CC3)cc1)=N[C@@H](Cc1ncco1)c1nnc(C)n1-2 (stereo partly drawn) [I-546] | < 500 |  |  | < 500 | 500 to 1500 | 
18 | Cc1sc2c(c1C)C(c1ccc(C/C=C/C3CN(c4ccc(C(=O)N[C@H]5CC[C@H](Oc6ccc(C#N)c(Cl)c6)CC5)nn4)C3)cc1)=N[C@@H](Cc1ncco1)c1nnc(C)n1-2 [I-678] | < 500 |  |  | > 3000 | > 3000 | 

Row | SMILES | GI50 ([1]; 72 h) [nM] | GI50 [2] [nM] | GI50 [3] [nM] | GI50 ([2]; 72 h) [nM] | GI50 ([3]; Homo sapiens, VCaP, 72 h) [nM] | GI50 [1] [nM]
19 | Cc1sc2c(c1C)C(c1ccc(C3CCC4(CC3)CCN(c3ccc(C(=O)N[C@H]5CC[C@H](Oc6ccc(C#N)c(Cl)c6)CC5)nn3)C4)cc1)=NC(C(F)(F)F)c1nnc(C)n1-2 (mixture of isomers) [I-742] |  | > 3000 | < 500 |  |  | > 3000
20 | Cc1sc2c(c1C)C(c1ccc(N3CCC4(CC3)CCN(c3ccc(C(=O)N[C@H]5CC[C@H](Oc6ccc(C#N)c(Cl)c6)CC5)nn3)C4)cc1)=NC(C(F)(F)F)c1nnc(C)n1-2 (single isomer, unassigned) [I-720] |  | > 3000 | > 3000 |  |  | > 3000
21 | Cc1sc2c(c1C)C(c1ccc(N3CC(CC4CCCN(c5ccc(C(=O)N[C@H]6CC[C@H](Oc7ccc(C#N)c(Cl)c7)CC6)nn5)C4)C3)cc1)=NC1(CC1)c1nnc(C)n1-2 (stereo partly drawn) [I-562] |  |  | > 3000 | < 500 |  | < 500
22 | Cc1sc2c(c1C)C(c1ccc(OC3CC(CC4CCN(c5ccc(C(=O)N[C@H]6CC[C@H](Oc7ccc(C#N)c(Cl)c7)CC6)nn5)CC4)C3)cc1)=NC1(CC1)c1nnc(C)n1-2 (stereo partly drawn) [I-528] | < 500 |  |  | > 3000 | < 500 | 
23 | Cc1sc2c(c1C)C(c1ccc(N3CC(CC4CCCN(c5ccc(C(=O)N[C@H]6CC[C@H](Oc7ccc(C#N)c(Cl)c7)CC6)nn5)C4)C3)cc1)=N[C@@H](C)c1nnc(C)n1-2 (stereo partly drawn) [I-576] | < 500 |  |  | < 500 | < 500 | 
24 | CCNC(=O)C[C@@H]1N=C(c2ccc(N3CCC(OC4CN(c5ccc(C(=O)N[C@H]6CC[C@H](Oc7ccc(C#N)c(Cl)c7)CC6)nn5)C4)CC3)cc2)c2c(sc(C)c2C)-n2c(C)nnc21 [I-58] | < 500 |  |  | 500 to 1500 | < 500 | 
25 | Cc1sc2c(c1C)C(c1ccc(CC3CC4(CCCN(c5ccc(C(=O)N[C@H]6CC[C@H](Oc7ccc(C#N)c(Cl)c7)CC6)nn5)C4)C3)cn1)=NC(Cc1ncco1)c1nnc(C)n1-2 (stereo partly drawn) [I-768] |  | > 3000 |  |  | < 500 | < 500
26 | Cc1sc2c(c1C)C(c1ccc(C3CCC4(CCN(c5ccc(C(=O)N[C@H]6CC[C@H](Oc7ccc(C#N)c(Cl)c7)CC6)nn5)CC4)C3)cc1)=N[C@@H](C)c1nnc(C)n1-2 (stereo partly drawn) [I-496] | < 500 |  | < 500 | > 3000 |  | 
27 | Cc1sc2c(c1C)C(c1ccc(N3CCC4(CC3)CCN(c3ccc(C(=O)N[C@H]5CC[C@H](Oc6ccc(C#N)c(Cl)c6)CC5)nn3)C4)cc1)=N[C@H](C)c1nnc(C)n1-2 [I-591] | < 500 |  |  | > 3000 | < 500 | 
28 | Cc1sc2c(c1C)C(c1ccc(N3CCC4CN(c5ccc(C(=O)N[C@H]6CC[C@H](Oc7ccc(C#N)c(Cl)c7)CC6)nn5)CCC4C3)cc1)=N[C@@H](C)c1nnc(C)n1-2 (stereo partly drawn) [I-620] |  | < 500 | < 500 |  |  | < 500
29 | Cc1sc2c(c1C)C(c1ccc(OCC3CCC4(CCCN(c5ccc(C(=O)N[C@H]6CC[C@H](Oc7ccc(C#N)c(Cl)c7)CC6)nn5)C4)C3)cc1)=N[C@@H](C)c1nnc(C)n1-2 (stereo partly drawn) [I-637] |  | < 500 | < 500 |  |  | < 500
30 | Cc1sc2c(c1C)C(c1ccc(CC3CCC4(C3)CN(c3ccc(C(=O)N[C@H]5CC[C@H](Oc6ccc(C#N)c(Cl)c6)CC5)nn3)CCO4)cc1)=N[C@@H](C)c1nnc(C)n1-2 (stereo partly drawn) [I-581] |  | < 500 | < 500 |  |  | < 500
31 | Cc1sc2c(c1C)C(c1ccc(NCCC3CCCN(c4ncc(C(=O)N[C@H]5CC[C@H](Oc6ccc(C#N)c(Cl)c6)CC5)cn4)C3)cc1)=NC(Cc1ncco1)c1nnc(C)n1-2 (stereo partly drawn) [I-800] | < 500 |  |  | < 500 | < 500 | 
32 | CCNC(=O)C[C@@H]1N=C(c2ccc(N3CC(OC4CCN(c5ccc(C(=O)N[C@H]6CC[C@H](Oc7ccc(C#N)c(Cl)c7)CC6)nn5)CC4)C3)cc2)c2c(sc(C)c2C)-n2c(C)nnc21 [I-57] | < 500 |  |  | < 500 | < 500 | 
33 | Cc1sc2c(c1C)C(c1ccc(N3CCC4(CCCN(c5ncc(C(=O)N[C@H]6CC[C@H](Oc7ccc(C#N)c(Cl)c7)CC6)cn5)C4)C3)cc1)=NC(Cc1ncco1)c1nnc(C)n1-2 (stereo partly drawn) [I-804] | < 500 |  |  | > 3000 | < 500 | 
34 | Cc1sc2c(c1C)C(c1ccc(N3CCC(N4CCN(c5ncc(C(=O)N[C@H]6CC[C@H](Oc7ccc(C#N)c(Cl)c7)CC6)cn5)CC4)CC3)cc1)=NC(Cc1ncco1)c1nnc(C)n1-2 (stereo partly drawn) [I-792] | < 500 |  |  | < 500 | < 500 | 
35 | Cc1sc2c(c1C)C(c1cccc(OCC3CCN(c4ccc(C(=O)N[C@H]5CC[C@H](Oc6ccc(C#N)c(Cl)c6)CC5)nn4)CC3)c1)=N[C@@H](C)c1nnc(C)n1-2 [I-681] | > 3000 |  |  | > 3000 | < 500 | 
